We go through one compound from publication PMC5218480 (PLoS ONE, 2017).

The test system of this experiment is MV-4-11 cells. The experiment can be described thus: Gene expression microarray analysis (Affymetrix PrimeView) and GSEA. Particulars: MV-4-11 cells, 48 hours. Format: cell-based, human. Details: RFU PODN (11730768_x_at) / Fold change /veh PODN (11730768_x_at) / RFU LINC00158 (11744669_a_at) / Fold change /veh LINC00158 (11744669_a_at) / RFU DUSP10 (11751237_a_at) / Fold change /veh DUSP10 (11751237_a_at) / RFU ID3 (11757404_x_at) / Fold change /veh ID3 (11757404_x_at) / RFU PLEKHG5 (11737974_s_at) / Fold change /veh PLEKHG5 (11737974_s_at) / RFU LRRC4B (11730491_at) / Fold change /veh LRRC4B (11730491_at) / RFU GIMAP4 (11747438_a_at) / Fold change /veh GIMAP4 (11747438_a_at) / RFU KRT8 (11758183_x_at) / Fold change /veh KRT8 (11758183_x_at) / RFU CNN1 (11734310_a_at) / Fold change /veh CNN1 (11734310_a_at) / RFU VPS37D (11726825_at) / Fold change /veh VPS37D (11726825_at) / RFU C10orf10 (11716522_x_at) / Fold change /veh C10orf10 (11716522_x_at) / RFU KIR2DL2 /// KIR2DL4 /// KIR2DL5A /// KIR2DL5B /// KIR2DS1 /// KIR2DS2 /// KIR2DS3 /// KIR2DS4 /// KIR3DL3 /// KIR3DL3 /// KIR3DS1 (11738374_at) / Fold change /veh KIR2DL2 /// KIR2DL4 /// KIR2DL5A /// KIR2DL5B /// KIR2DS1 /// KIR2DS2 /// KIR2DS3 /// KIR2DS4 /// KIR3DL3 /// KIR3DL3 /// KIR3DS1 (11738374_at) / RFU C1QL1 (11718748_at) / Fold change /veh C1QL1 (11718748_at) / RFU TMPRSS4 (11747572_a_at) / Fold change /veh TMPRSS4 (11747572_a_at) / RFU HAMP (11756126_x_at) / Fold change /veh HAMP (11756126_x_at) / RFU RNFT2 (11725882_a_at) / Fold change /veh RNFT2 (11725882_a_at) / RFU NR4A2 (11747474_a_at) / Fold change /veh NR4A2 (11747474_a_at) / RFU ABCC12 (11746883_a_at) / Fold change /veh ABCC12 (11746883_a_at) / RFU TMEM136 (11760407_x_at) / Fold change /veh TMEM136 (11760407_x_at) / RFU CLDN22 /// WWC2 (11732394_at) / Fold change /veh CLDN22 /// WWC2 (11732394_at) / RFU HLA-DPB1 (11760878_x_at) / Fold change /veh HLA-DPB1 (11760878_x_at) / RFU SPINT1 (11716480_a_at) / Fold change /veh SPINT1 (11716480_a_at) / RFU GAP43 (11754022_s_at) / Fold change /veh GAP43 (11754022_s_at) / RFU A4GNT (11735810_at) / Fold change /veh A4GNT (11735810_at) / RFU PRB3 (11715151_x_at) / Fold change /veh PRB3 (11715151_x_at) / RFU TUBB4B (11761932_at) / Fold change /veh TUBB4B (11761932_at) / RFU CAPN14 (11732068_a_at) / Fold change /veh CAPN14 (11732068_a_at) / RFU TMCC2 (11721928_a_at) / Fold change /veh TMCC2 (11721928_a_at) / RFU IRGQ (11745062_a_at) / Fold change /veh IRGQ (11745062_a_at) / RFU FAM174B (11720279_a_at) / Fold change /veh FAM174B (11720279_a_at) / RFU TMPRSS4 (11748680_a_at) / Fold change /veh TMPRSS4 (11748680_a_at) / RFU FAM212B (11763350_a_at) / Fold change /veh FAM212B (11763350_a_at) / RFU PLEKHG5 (11743358_a_at) / Fold change /veh PLEKHG5 (11743358_a_at) / RFU ZSCAN30 (11745921_a_at) / Fold change /veh ZSCAN30 (11745921_a_at) / RFU CMKLR1 (11741424_a_at) / Fold change /veh CMKLR1 (11741424_a_at) / RFU LOC101060620 /// MAPK8IP1 (11723275_at) / Fold change /veh LOC101060620 /// MAPK8IP1 (11723275_at) / RFU SPTSSB (11747773_x_at) / Fold change /veh SPTSSB (11747773_x_at) / RFU PRSS12 (11739890_at) / Fold change /veh PRSS12 (11739890_at) / RFU BIN1 (11741810_x_at) / Fold change /veh BIN1 (11741810_x_at) / RFU WNT11 (11732464_a_at) / Fold change /veh WNT11 (11732464_a_at) / RFU C10orf10 (11716521_a_at) / Fold change /veh C10orf10 (11716521_a_at) / RFU C5orf56 (11738089_at) / Fold change /veh C5orf56 (11738089_at) / RFU CYB561 (11721691_x_at) / Fold change /veh CYB561 (11721691_x_at) / RFU ANKRD19P (11752326_a_at) / Fold change /veh ANKRD19P (11752326_a_at) / RFU OR2T12 /// OR2T33 /// OR2T8 (11738714_s_at) / Fold change /veh OR2T12 /// OR2T33 /// OR2T8 (11738714_s_at) / RFU VCAN (11748164_a_at) / Fold change /veh VCAN (11748164_a_at) / RFU JSRP1 (11732532_at) / Fold change /veh JSRP1 (11732532_at) / RFU KRTAP10-11 (11738290_x_at) / Fold change /veh KRTAP10-11 (11738290_x_at) / RFU MYO3A (11730013_a_at) / Fold change /veh MYO3A (11730013_a_at) / RFU EBF3 (11725865_a_at) / Fold change /veh EBF3 (11725865_a_at) / RFU CAMK2N1 (11719241_x_at) / Fold change /veh CAMK2N1 (11719241_x_at) / RFU C5orf56 (11738088_a_at) / Fold change /veh C5orf56 (11738088_a_at) / RFU OLFML3 (11715873_a_at) / Fold change /veh OLFML3 (11715873_a_at) / RFU LOC100653217 /// NTM (11731650_a_at) / Fold change /veh LOC100653217 /// NTM (11731650_a_at) / RFU MAPK11 (11762145_a_at) / Fold change /veh MAPK11 (11762145_a_at) / RFU FIZ1 (11724087_x_at) / Fold change /veh FIZ1 (11724087_x_at) / RFU OASL (11726364_x_at) / Fold change /veh OASL (11726364_x_at) / RFU SOX15 (11748057_x_at) / Fold change /veh SOX15 (11748057_x_at) / RFU CD79A (11719716_a_at) / Fold change /veh CD79A (11719716_a_at) / RFU HIST1H1D (11736915_at) / Fold change /veh HIST1H1D (11736915_at) / RFU CASKIN2 (11723855_a_at) / Fold change /veh CASKIN2 (11723855_a_at) / RFU LOC730098 (11760151_x_at) / Fold change /veh LOC730098 (11760151_x_at) / RFU OR4N2 (11742367_at) / Fold change /veh OR4N2 (11742367_at) / RFU PRRT2 (11749266_a_at) / Fold change /veh PRRT2 (11749266_a_at) / RFU SNX32 (11753110_a_at) / Fold change /veh SNX32 (11753110_a_at) / RFU CDHR5 (11726645_a_at) / Fold change /veh CDHR5 (11726645_a_at) / RFU RCAN1 (11760418_a_at) / Fold change /veh RCAN1 (11760418_a_at) / RFU FAM167A (11723789_a_at) / Fold change /veh FAM167A (11723789_a_at) / RFU FAM26E (11764081_at) / Fold change /veh FAM26E (11764081_at) / RFU ISYNA1 (11749810_s_at) / Fold change /veh ISYNA1 (11749810_s_at) / RFU ACY1 (11761880_at) / Fold change /veh ACY1 (11761880_at) / RFU 11764098_at / Fold change /veh 11764098_at / RFU SAMD14 (11745864_x_at) / Fold change /veh SAMD14 (11745864_x_at) / RFU NPB (11741838_a_at) / Fold change /veh NPB (11741838_a_at) / RFU TMPRSS6 (11731388_a_at) / Fold change /veh TMPRSS6 (11731388_a_at) / RFU KRTAP10-2 (11738614_at) / Fold change /veh KRTAP10-2 (11738614_at) / RFU ARHGAP8 /// PRR5-ARHGAP8 (11727945_x_at) / Fold change /veh ARHGAP8 /// PRR5-ARHGAP8 (11727945_x_at) / RFU KRTAP5-7 /// NADSYN1 (11734609_at) / Fold change /veh KRTAP5-7 /// NADSYN1 (11734609_at) / RFU RASL12 (11751679_a_at) / Fold change /veh RASL12 (11751679_a_at) / RFU CDKN2B (11736163_a_at) / Fold change /veh CDKN2B (11736163_a_at) / RFU PRF1 (11729649_at) / Fold change /veh PRF1 (11729649_at) / RFU, ZNF638 /// ZNF638-IT1 / Fold change vs veh, ZNF638 /// ZNF638-IT1 / RFU, PANK3 / Fold change vs veh, PANK3 / RFU, SH3YL1 / Fold change vs veh, SH3YL1 / RFU, ZEB2 / Fold change vs veh, ZEB2 / RFU, NRIP1 / Fold change vs veh, NRIP1 / RFU, PTTG1IP / Fold change vs veh, PTTG1IP / RFU, CAPN2 / Fold change vs veh, CAPN2 / RFU, MED14 / Fold change vs veh, MED14 / RFU, SNORA58 / Fold change vs veh, SNORA58 / RFU, C1orf63 / Fold change vs veh, C1orf63 / RFU, LRRFIP1 / Fold change vs veh, LRRFIP1 / RFU, NDUFAF7 / Fold change vs veh, NDUFAF7 / RFU, SLC12A2 / Fold change vs veh, SLC12A2 / RFU, IBTK / Fold change vs veh, IBTK / RFU, ESF1 / Fold change vs veh, ESF1 / Fold change vs veh, TMEM50B / RFU, TAOK1 / Fold change vs veh, TAOK1 / RFU, ACBD3 / Fold change vs veh, ACBD3 / RFU, TMA16 / Fold change vs veh, TMA16 / RFU, RWDD3 / Fold change vs veh, RWDD3 / RFU, BCAT1 / Fold change vs veh, BCAT1 / RFU, EDEM3 / Fold change vs veh, EDEM3 / RFU, TMEM33 / Fold change vs veh, TMEM33 / RFU, WDR75 / Fold change vs veh, WDR75 / RFU, AHCTF1 / Fold change vs veh, AHCTF1 / RFU, TFRC / Fold change vs veh, TFRC / RFU, ZDHHC17 / Fold change vs veh, ZDHHC17 / RFU, NOM1 / Fold change vs veh, NOM1 / RFU, ARL8B / Fold change vs veh, ARL8B / RFU, ZBTB11 / Fold change vs veh, ZBTB11 / RFU, TAMM41 / Fold change vs veh, TAMM41 / RFU, KIAA1704 /// LOC100996395 / Fold change vs veh, KIAA1704 /// LOC100996395 / RFU, ING1 / Fold change vs veh, ING1 / RFU, TRMT61B / Fold change vs veh, TRMT61B / RFU, FUBP3 / Fold change vs veh, FUBP3 / RFU, TP53 / Fold change vs veh, TP53 / RFU, TNKS2 / Fold change vs veh, TNKS2 / RFU, ZFP14 / Fold change vs veh, ZFP14 / RFU, ACTR2 / Fold change vs veh, ACTR2 / RFU, PPP3R1 / Fold change vs veh, PPP3R1 / RFU, PIK3R1 / Fold change vs veh, PIK3R1 / RFU, HNRNPA1 / Fold change vs veh, HNRNPA1 / RFU, RNF170 / Fold change vs veh, RNF170 / RFU, ZNF28 / Fold change vs veh, ZNF28 / RFU, RNGTT / Fold change vs veh, RNGTT / RFU, OGT / Fold change vs veh, OGT / RFU, BRD1 / Fold change vs veh, BRD1 / RFU, MARS / Fold change vs veh, MARS / RFU, ZNF655 / Fold change vs veh, ZNF655 / RFU, FAHD1 / Fold change vs veh, FAHD1 / RFU, BDP1 / Fold change vs veh, BDP1 / RFU, LRRCC1 / Fold change vs veh, LRRCC1 / RFU, ARID1A / Fold change vs veh, ARID1A / RFU, ZNF146 / Fold change vs veh, ZNF146 / RFU, ZNF330 / Fold change vs veh, ZNF330 / RFU, GPN3 / Fold change vs veh, GPN3 / RFU, C9orf123 / Fold change vs veh, C9orf123 / RFU, N4BP2L2 / Fold change vs veh, N4BP2L2 / RFU, ARFIP1 / Fold change vs veh, ARFIP1 / RFU, FAM179B / Fold change vs veh, FAM179B / RFU, BCL10 / Fold change vs veh, BCL10 / RFU, UHRF1BP1L / Fold change vs veh, UHRF1BP1L / RFU, BET1 / Fold change vs veh, BET1 / RFU, CNOT2 / Fold change vs veh, CNOT2 / RFU, ZNF268 / Fold change vs veh, ZNF268 / Fold change vs veh, ZNF507 / RFU, DGCR2 / Fold change vs veh, DGCR2 / RFU, WDSUB1 / Fold change vs veh, WDSUB1 / Fold change vs veh, HSP90B1 /// MIR3652 / RFU, ADSS / Fold change vs veh, ADSS / RFU, GK / Fold change vs veh, GK / RFU, ZNF148 / Fold change vs veh, ZNF148 / RFU, TAF9 / Fold change vs veh, TAF9 / RFU, SLC1A5 / Fold change vs veh, SLC1A5 / RFU, SLMO2 / Fold change vs veh, SLMO2 / RFU, ABCC4 / Fold change vs veh, ABCC4 / RFU, LOC101060439 /// RAP1B / Fold change vs veh, LOC101060439 /// RAP1B / RFU, RFX7 / Fold change vs veh, RFX7 / RFU, GTPBP10 / Fold change vs veh, GTPBP10 / RFU, CNEP1R1 / Fold change vs veh, CNEP1R1 / RFU, BIVM-ERCC5 /// ERCC5 / Fold change vs veh, BIVM-ERCC5 /// ERCC5 / RFU, ILF3 / Fold change vs veh, ILF3 / RFU 11762660_at / Fold change /veh 11762660_at / RFU VCAN (11757783_s_at) / Fold change /veh VCAN (11757783_s_at) / RFU DDX43 (11728927_at) / Fold change /veh DDX43 (11728927_at) / RFU KRT8 (11758188_x_at) / Fold change /veh KRT8 (11758188_x_at) / RFU NKD1 (11759106_at) / Fold change /veh NKD1 (11759106_at) / RFU SRD5A1 (11742802_a_at) / Fold change /veh SRD5A1 (11742802_a_at) / RFU TPSAB1 /// TPSB2 (11721975_s_at) / Fold change /veh TPSAB1 /// TPSB2 (11721975_s_at) / RFU GSTM3 (11746129_a_at) / Fold change /veh GSTM3 (11746129_a_at) / RFU IL23R (11737362_x_at) / Fold change /veh IL23R (11737362_x_at) / RFU TMEM51 (11727254_a_at) / Fold change /veh TMEM51 (11727254_a_at) / RFU PIWIL2 (11732686_x_at) / Fold change /veh PIWIL2 (11732686_x_at) / RFU ORM1 (11744905_x_at) / Fold change /veh ORM1 (11744905_x_at) / RFU CCDC152 (11743942_at) / Fold change /veh CCDC152 (11743942_at) / RFU ECM1 (11717891_a_at) / Fold change /veh ECM1 (11717891_a_at) / RFU IL23R (11748794_a_at) / Fold change /veh IL23R (11748794_a_at) / RFU TNFAIP8L3 (11732012_x_at) / Fold change /veh TNFAIP8L3 (11732012_x_at) / RFU MBOAT4 (11741988_at) / Fold change /veh MBOAT4 (11741988_at) / RFU 11764193_at / Fold change /veh 11764193_at / RFU TMEM53 (11763286_at) / Fold change /veh TMEM53 (11763286_at) / RFU MAGEB2 (11727129_at) / Fold change /veh MAGEB2 (11727129_at) / RFU TMEM200A (11744735_a_at) / Fold change /veh TMEM200A (11744735_a_at) / RFU CCDC152 (11751479_a_at) / Fold change /veh CCDC152 (11751479_a_at) / RFU FAM211A (11726209_a_at) / Fold change /veh FAM211A (11726209_a_at) / RFU RGS16 (11746705_a_at) / Fold change /veh RGS16 (11746705_a_at) / RFU VCAN (11755009_s_at) / Fold change /veh VCAN (11755009_s_at) / RFU RHOB (11743442_s_at) / Fold change /veh RHOB (11743442_s_at) / RFU RGS16 (11720943_a_at) / Fold change /veh RGS16 (11720943_a_at) / RFU RGS16 (11720944_at) / Fold change /veh RGS16 (11720944_at) / RFU, VPS4B / Fold change vs veh, VPS4B / RFU, CREB1 / Fold change vs veh, CREB1 / RFU, DNAJC13 / Fold change vs veh, DNAJC13 / RFU, GNAQ / Fold change vs veh, GNAQ / RFU, CDK5R1 / Fold change vs veh, CDK5R1 / RFU, ZRANB3 / Fold change vs veh, ZRANB3 / RFU, CUL4A / Fold change vs veh, CUL4A / RFU, CCNY / Fold change vs veh, CCNY / RFU, UFL1 / Fold change vs veh, UFL1 / RFU, COG3 / Fold change vs veh, COG3 / RFU, DIAPH2 / Fold change vs veh, DIAPH2 / RFU, SKA2 / Fold change vs veh, SKA2 / RFU, AFF3 / Fold change vs veh, AFF3 / RFU, LMF1 / Fold change vs veh, LMF1 / RFU, IPO11 / Fold change vs veh, IPO11 / RFU, DFFB / Fold change vs veh, DFFB / RFU, FOXP1 / Fold change vs veh, FOXP1 / RFU, CARD8 / Fold change vs veh, CARD8 / RFU, STRN3 / Fold change vs veh, STRN3 / RFU, ADK / Fold change vs veh, ADK / RFU, RASSF2 / Fold change vs veh, RASSF2 / RFU, WIPF1 / Fold change vs veh, WIPF1 / RFU, LARP1B / Fold change vs veh, LARP1B / RFU, RASA1 / Fold change vs veh, RASA1 / RFU, RB1 / Fold change vs veh, RB1 / RFU, PPFIA1 / Fold change vs veh, PPFIA1 / RFU, MAT2A / Fold change vs veh, MAT2A / RFU, CCT5 / Fold change vs veh, CCT5 / RFU, WDR92 / Fold change vs veh, WDR92 / RFU, CUX1 / Fold change vs veh, CUX1 / RFU, TTC7A / Fold change vs veh, TTC7A / RFU, TMEM135 / Fold change vs veh, TMEM135 / RFU, DEPTOR / Fold change vs veh, DEPTOR / RFU, CPM / Fold change vs veh, CPM / RFU, DNAJB6 / Fold change vs veh, DNAJB6 / RFU, CACNA2D3 / Fold change vs veh, CACNA2D3 / RFU, DTX4 / Fold change vs veh, DTX4 / RFU, TFCP2 / Fold change vs veh, TFCP2 / RFU, GMCL1 /// GMCL1P1 / Fold change vs veh, GMCL1 /// GMCL1P1 / RFU, AEBP2 / Fold change vs veh, AEBP2 / RFU, SNHG1 /// SNORD22 /// SNORD25 /// SNORD26 /// SNORD27 /// SNORD28 /// SNORD29 /// SNORD31 / Fold change vs veh, SNHG1 /// SNORD22 /// SNORD25 /// SNORD26 /// SNORD27 /// SNORD28 /// SNORD29 /// SNORD31 / Fold change (Aza/veh), C12orf56 (ProbeSet 11735607_a_at) / Fold change (ACY-1035/veh), C12orf56 (ProbeSet 11735607_a_at) / Fold change (Aza/veh), FGFR1OP (ProbeSet 11751329_s_at) / Fold change (ACY-1035/veh), FGFR1OP (ProbeSet 11751329_s_at) / Fold change (Aza/veh), VPS36 (ProbeSet 11739960_a_at) / Fold change (ACY-1035/veh), VPS36 (ProbeSet 11739960_a_at) / RFU SYPL1 (11715823_x_at) / Fold change /veh SYPL1 (11715823_x_at) / RFU IGFBP7 (11715501_s_at) / Fold change /veh IGFBP7 (11715501_s_at) / RFU REEP3 (11722064_at) / Fold change /veh REEP3 (11722064_at) / RFU IGLL1 (11728026_x_at) / Fold change /veh IGLL1 (11728026_x_at): dose or concentration left out as unconfirmed.

For the compound `Nc1ccc(-c2cccs2)cc1NC(=O)c1ccc2c(c1)cc(C1CC1)n2CCN1CCOCC1` [ACY-1035], the “RFU C10orf10 (11716521_a_at)” value came to 34.07 RFU.
